Target: récepteurs des benzodiazépines
Experiment: Benzodiazepine receptor affinity: [3H]flunitrazepam binding, modified method of Squires and Braestrup
Parameters: species or system rats
Details: concentration inhibiting by 50 % the specific binding of 0,6 nanomoles (3H) flunitrazépam; rat forebrain membrane preparations; read-out: CI50 (the source's name)
Text: L'affinité des composés pour les récepteurs des benzodiazépines a été évaluée en utilisant un radioligand/^3H/flunitra- zépam et la méthode de Squires et Braestrup (Nature, 1977, 266,732) modifiée.
Les valeurs ci-dessus sont les concentrations nanomolaires du produit testé qui inhibent dans une proportion de 50 % la liaison spécifique de 0,6 nanomoles (^3H) flunitrazépam tant de préparations de membranes de cerveaux antérieurs de rats (CI50) nanomoles.

SMILES | IC50 [nM]
CCc1ccc2c(c1)c(OC)cc1nc(C(OC(C)=O)c3ccccc3)cn12 (stereo not shown) [Exemple 1] | 5000
CCc1ccc2c(c1)c(OC)cc1nc(C(=O)c3ccccc3)c(Br)n12 [Exemple 2, (1-bromo 7-éthyl 5-méthoxyimidazo/1,2-a/quinoléin-2-yl)phénylméthanone] | 3200
CCc1ccc2c(c1)c(OC)cc1nc(C(=O)c3ccccc3)c(Cl)n12 [Exemple 3, (1-chloro 7-éthyl 5-méthoxyimidazo/1,2-a/quinoléin-2-yl)phénylméthanone] | 975
CCc1ccc2c(c1)c(O)cc1nc(C(=O)c3ccccc3)cn12 [Exemple 4, 2-benzoyl 7-éthylimidazo/1,2-a/quinoléin-501] | 430
CCc1ccc2c(c1)c(OC)cc1nc(C(C)(O)c3ccccc3)cn12 (stereo not shown) [Exemple 5, 1-(7-éthyl 5-méthoxyimidazo/1,2-a/quinoléin-2-yl) 1-phényléthanol] | 8000
CCc1ccc2c(c1)c(OC(C)=O)cc1nc(C(=O)c3ccccc3)cn12 [Exemple 6, Acétatede 2-benzoyl 7-éthylimidazo/1,2-a/quinoléin-2-vle] | 395
C=C(c1ccccc1)c1cn2c(cc(OC)c3cc(CC)ccc32)n1 [Exemple 7, Chlorhydratede 7-éthyl 5-méthoxy 2-(1-phénylvinyl) imidazo/1,2-a/quinoléine] | 120
CCc1ccc2c(c1)c(OC)c(C)c1nc(C(=O)c3ccccc3)cn12 [Exemple 8, (7-éthyl 5-méthoxy 4-méthylimidazo/1,2-a/quinoléin-2-yl)phénylméthanone] | 7
CCc1ccc2c(c1)c(C)cc1nc(C(=O)c3ccccc3)cn12 [Exemple 9] | 250
CCc1ccc2c(c1)c(OC)c(CC)c1nc(C(=O)c3ccccc3)cn12 [Exemple 10, (4,7-diéthyl 5-méthoxyimidazo/1,2-a/quinoléin-2-yl) phénylméthanone] | 135

Source: patent publication EP0107988A2, “Imidazo (1,2-a)quinolines, their salts, their preparation, their use as medicaments and compositions containing them” (ROUSSEL-UCLAF, priority 1982, dated 1984)
